Assay in all cases: relative viability (nuclei count vs DMSO), 5 days (fraction); higher = more cells survive
Compound in the assay “Doxorubicin + Crizotinib”: COc1cccc2c1C(=O)c1c(O)c3c(c(O)c1C2=O)C[C@@](O)(C(=O)CO)C[C@@H]3O[C@H]1C[C@H](N)[C@H](O)[C@H](C)O1 [Doxorubicin] + C[C@@H](Oc1cc(-c2cnn(C3CCNCC3)c2)cnc1N)c1c(Cl)ccc(F)c1Cl [Crizotinib] (partner 1 µM)
In outline: (§1)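 Relative viability divides the nuclei count in treated wells by that in vehicle wells. Lung cancer cell lines were seeded in 1536-well plates, dosed by pin tool the next day, and fixed and stained after 5 days in one step with final 0.05% Triton X-100, 1% formaldehyde and 1 ug/ml Hoechst. Dosing was a single drug or a fixed anchor-drug dose plus five library-drug doses (not always all listed) in √10 steps, and values are medians of duplicate plates imaged at 4×.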

Compound in the assay “Doxorubicin + OSI-027”: COc1cccc2c1C(=O)c1c(O)c3c(c(O)c1C2=O)C[C@@](O)(C(=O)CO)C[C@@H]3O[C@H]1C[C@H](N)[C@H](O)[C@H](C)O1 [Doxorubicin] + COc1cccc2cc(-c3nc([C@H]4CC[C@H](C(=O)O)CC4)n4ncnc(N)c34)[nH]c12 [OSI-027] (partner 0.5 µM)
In outline: as §1

Compound in the assay “Doxorubicin + Trametinib”: COc1cccc2c1C(=O)c1c(O)c3c(c(O)c1C2=O)C[C@@](O)(C(=O)CO)C[C@@H]3O[C@H]1C[C@H](N)[C@H](O)[C@H](C)O1 [Doxorubicin] + CC(=O)Nc1cccc(-n2c(=O)n(C3CC3)c(=O)c3c(Nc4ccc(I)cc4F)n(C)c(=O)c(C)c32)c1 [Trametinib] (partner 0.02 µM)
In outline:
as §1

Compound in the assay “BAY61-3606 + Olaparib”: COC1=C(C=C(C=C1)C2=CC3=NC=CN3C(=N2)NC4=C(C=CC=N4)C(=O)N)OC [BAY61-3606] + O=C(c1cc(Cc2n[nH]c(=O)c3ccccc23)ccc1F)N1CCN(C(=O)C2CC2)CC1 [Olaparib] (partner 8 µM)
An outline of the steps: as §1

As for NCI-H661, the relative viability with Doxorubicin + Crizotinib (first compound 0.001 µM) is 0.971; in the assay with Doxorubicin + Crizotinib (first compound 0.003162 µM), 1.21; in the assay with Doxorubicin + Crizotinib (first compound 0.01 µM), 1.08; in the assay with Doxorubicin + Crizotinib (first compound 0.03162 µM), 1.02; in the assay with Doxorubicin + Crizotinib (first compound 0.1 µM), 0.993; in the assay with Doxorubicin + OSI-027 (first compound 0.001 µM), 0.829. Also, the relative viability with Doxorubicin + OSI-027 (first compound 0.003162 µM) is 0.639; with Doxorubicin + OSI-027 (first compound 0.01 µM), 0.625; in the assay with Doxorubicin + OSI-027 (first compound 0.03162 µM) it was 0.46; with Doxorubicin + OSI-027 (first compound 0.1 µM) it was 0.291; with Doxorubicin + Trametinib (first compound 0.001 µM), 0.613; with Doxorubicin + Trametinib (first compound 0.003162 µM) it was 0.604. Further, the relative viability with Doxorubicin + Trametinib (first compound 0.01 µM) came out at 0.488; with Doxorubicin + Trametinib (first compound 0.03162 µM), 0.401; with Doxorubicin + Trametinib (first compound 0.1 µM), 0.388; with BAY61-3606 + Olaparib (first compound 0.02 µM) it was 0.737; with BAY61-3606 + Olaparib (first compound 0.06325 µM) it was 0.75; in the assay with BAY61-3606 + Olaparib (first compound 0.2 µM), 0.679. The relative viability stood at 0.762 with BAY61-3606 + Olaparib (first compound 0.6325 µM) and 0.691 with BAY61-3606 + Olaparib (first compound 2 µM).

As for NCI-H23, the relative viability with Doxorubicin + Crizotinib (first compound 0.003162 µM) came out at 0.479; with Doxorubicin + Crizotinib (first compound 0.01 µM), 0.507; with Doxorubicin + Crizotinib (first compound 0.03162 µM), 0.298; in the assay with Doxorubicin + Crizotinib (first compound 0.1 µM), 0.449; with Doxorubicin + OSI-027 (first compound 0.003162 µM), 0.664; with Doxorubicin + OSI-027 (first compound 0.01 µM), 0.694. Moreover, the relative viability with Doxorubicin + OSI-027 (first compound 0.03162 µM) worked out at 0.537; with Doxorubicin + OSI-027 (first compound 0.1 µM), 0.506; in the assay with Doxorubicin + Trametinib (first compound 0.001 µM), 0.326; with Doxorubicin + Trametinib (first compound 0.003162 µM), 0.45; in the assay with Doxorubicin + Trametinib (first compound 0.01 µM), 0.344; in the assay with Doxorubicin + Trametinib (first compound 0.03162 µM), 0.334. Also, the relative viability with Doxorubicin + Trametinib (first compound 0.1 µM) came out at 0.45; with BAY61-3606 + Olaparib (first compound 0.02 µM) it was 0.327; in the assay with BAY61-3606 + Olaparib (first compound 0.06325 µM), 0.304; with BAY61-3606 + Olaparib (first compound 0.2 µM), 0.289; in the assay with BAY61-3606 + Olaparib (first compound 0.6325 µM), 0.305; with BAY61-3606 + Olaparib (first compound 2 µM), 0.288.

Regarding A-427, the relative viability in the assay with Doxorubicin + Crizotinib (first compound 0.001 µM) came out at 0.855; in the assay with Doxorubicin + Crizotinib (first compound 0.003162 µM), 1.02; with Doxorubicin + Crizotinib (first compound 0.01 µM), 0.897; with Doxorubicin + Crizotinib (first compound 0.03162 µM), 0.978; with Doxorubicin + Crizotinib (first compound 0.1 µM) it was 0.88; with Doxorubicin + OSI-027 (first compound 0.001 µM), 0.427. Moreover, the relative viability with Doxorubicin + OSI-027 (first compound 0.003162 µM) was 0.506; in the assay with Doxorubicin + OSI-027 (first compound 0.01 µM), 0.429; with Doxorubicin + OSI-027 (first compound 0.03162 µM), 0.43; with Doxorubicin + OSI-027 (first compound 0.1 µM), 0.442; with Doxorubicin + Trametinib (first compound 0.001 µM) it was 0.782; with Doxorubicin + Trametinib (first compound 0.003162 µM), 0.708. The relative viability in the assay with Doxorubicin + Trametinib (first compound 0.01 µM) was 0.743; with Doxorubicin + Trametinib (first compound 0.03162 µM), 0.534; in the assay with Doxorubicin + Trametinib (first compound 0.1 µM), 0.418; with BAY61-3606 + Olaparib (first compound 0.02 µM), 0.79; with BAY61-3606 + Olaparib (first compound 0.06325 µM), 0.694; in the assay with BAY61-3606 + Olaparib (first compound 0.2 µM), 0.765. The relative viability with BAY61-3606 + Olaparib (first compound 0.6325 µM) turned out to be 0.777; in the assay with BAY61-3606 + Olaparib (first compound 2 µM), 0.715.

Consider NCI-H647, for which the relative viability turned out to be 1.02 in the assay with Doxorubicin + Crizotinib (first compound 0.001 µM); 1.26 in the assay with Doxorubicin + Crizotinib (first compound 0.003162 µM); 0.84 with Doxorubicin + Crizotinib (first compound 0.01 µM); 0.375 in the assay with Doxorubicin + Crizotinib (first compound 0.03162 µM); 0.17 with Doxorubicin + Crizotinib (first compound 0.1 µM); 0.695 with Doxorubicin + OSI-027 (first compound 0.001 µM). Moreover, the relative viability in the assay with Doxorubicin + OSI-027 (first compound 0.003162 µM) was determined as 0.805; in the assay with Doxorubicin + OSI-027 (first compound 0.01 µM), 0.771; in the assay with Doxorubicin + OSI-027 (first compound 0.03162 µM), 0.498; with Doxorubicin + OSI-027 (first compound 0.1 µM), 0.215; with Doxorubicin + Trametinib (first compound 0.001 µM), 0.449; with Doxorubicin + Trametinib (first compound 0.003162 µM), 0.623. Besides, the relative viability in the assay with Doxorubicin + Trametinib (first compound 0.01 µM) amounted to 0.543; with Doxorubicin + Trametinib (first compound 0.03162 µM), 0.295; with Doxorubicin + Trametinib (first compound 0.1 µM) it was 0.202; in the assay with BAY61-3606 + Olaparib (first compound 0.02 µM), 0.729; with BAY61-3606 + Olaparib (first compound 0.06325 µM) it was 0.743; with BAY61-3606 + Olaparib (first compound 0.2 µM), 0.574. Moreover, the figures for the relative viability with BAY61-3606 + Olaparib (first compound 0.6325 µM) and in the assay with BAY61-3606 + Olaparib (first compound 2 µM) were 0.432 and 0.237, respectively.

The values above are taken from the supplement of paper PMC10307832.
